Calls of active or inactive are those of the source.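 Rule for the calls: active = IC50 at or below 10 micromolar; inactive = IC50 above 10 micromolar.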

For this assay, the target named is Bcl-2-like protein 1 (Homo sapiens) (UniProt Q07817). In words: Bcl-xL inhibitors, concentration-response – biochemical, fluorescence polarization, powder samples, counter-screen for MCL1-BIM inhibitor project, dose response (AID 2790). The following applies: GST-BCL-XL / FITC-Bim BH3 fluorescence polarization.
Chain of Bcl-2-like protein 1 (Homo sapiens) (Q07817 whole entry, looked up): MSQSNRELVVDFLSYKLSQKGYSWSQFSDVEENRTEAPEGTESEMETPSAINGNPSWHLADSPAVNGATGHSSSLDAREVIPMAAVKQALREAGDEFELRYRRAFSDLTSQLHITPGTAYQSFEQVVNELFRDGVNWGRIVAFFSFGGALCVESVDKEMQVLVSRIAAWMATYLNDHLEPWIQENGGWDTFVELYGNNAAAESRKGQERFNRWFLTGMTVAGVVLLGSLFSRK
Take `O=C(NN=Cc1ccc(-c2ccc(S(=O)(=O)Nc3ncccn3)cc2)o1)c1cc2ccccc2cc1O`: the IC50 is > 109 µM (inactive). Next, `CCOc1ccc(NC(=O)c2cccc(-n3cccc3)c2)cc1S(=O)(=O)N1CCOCC1`: > 109 µM (inactive). In the case of `COC(=O)c1ccccc1NCc1cc(=O)oc2cc(O)c(O)cc12`, the IC50 is > 109 µM (inactive). As to `CCc1sc(C(C2C(=O)CC(C)(C)CC2=O)C2C(=O)CC(C)(C)CC2=O)cc1[N+](=O)[O-]`, the IC50 was > 109 µM (inactive). In the case of `O=C(NN=Cc1cccc(F)c1)c1cc(-c2ccco2)nc2ccccc12`, the IC50 is > 109 µM (inactive).

For the compound `Cc1cccc(NC(=O)CNC(=O)c2cccc(-n3cccc3)c2)c1C`, the IC50 is > 109 µM (inactive). Regarding `C=CCN=c1scc(-c2ccco2)n1/N=C/c1ccc(O)c(O)c1O`, the IC50 is > 109 µM (inactive). For the compound `Cc1ccc(C(=O)O)cc1-c1ccc(/C=C2\SC(=O)N(CC(=O)Nc3ccc4c(c3)OCO4)C2=O)o1`, the IC50 was > 109 µM (inactive). Next, `c1coc(-c2nc(-c3ccco3)c(-c3ccco3)nc2-c2ccco2)c1`: > 109 µM (inactive); `COc1ccc(-n2cccc2/C=C2\C(=N)N3N=C(c4ccco4)SC3=NC2=O)cc1`: > 109 µM (inactive); `COc1ccc(NC(=O)CN(C)C(=O)c2cc3c(s2)CCC3)cc1`: > 109 µM (inactive). Consider `COc1ccc(Cc2nnc(NC(=O)Cc3cccs3)s2)cc1OC`, for which the IC50 is > 109 µM (inactive). Consider `C=CCn1c(SCC(=O)c2ccc(O)c(O)c2)nnc1-c1cccnc1`, for which the IC50 entry is “inactive”. On to `Nc1ccc(C(=O)NN=Cc2cc(N=Nc3cccc4ccccc34)ccc2O)cc1`, for which the IC50 was > 109 µM (inactive). Next, `O=C1COc2ccc(C(=O)COC(=O)/C=C/c3ccc(Br)o3)cc2N1`: > 109 µM (inactive).

In general, IC50 refers to the point on the concentration scale where inhibition reaches its midpoint.

For the origin of these results see PubChem BioAssay AID2790 (The Scripps Research Institute Molecular Screening Center, 2010).
